Earlier results in patent US20120220630A1, “PRUCALOPRIDE ORAL SOLUTION” (Shire-Movetis NV, priority 2011, published 2012).

Columns and labels:
5-HT4 receptors = 5-HT4 receptors (Homo sapiens, UniProt Q13639)
[1] = system: colonic motility and defecation; conditions: in animals
5-HT2A receptors = 5-HT2A receptors (Homo sapiens, UniProt P28223)
5-HT2A receptors, sequence (P28223 whole entry): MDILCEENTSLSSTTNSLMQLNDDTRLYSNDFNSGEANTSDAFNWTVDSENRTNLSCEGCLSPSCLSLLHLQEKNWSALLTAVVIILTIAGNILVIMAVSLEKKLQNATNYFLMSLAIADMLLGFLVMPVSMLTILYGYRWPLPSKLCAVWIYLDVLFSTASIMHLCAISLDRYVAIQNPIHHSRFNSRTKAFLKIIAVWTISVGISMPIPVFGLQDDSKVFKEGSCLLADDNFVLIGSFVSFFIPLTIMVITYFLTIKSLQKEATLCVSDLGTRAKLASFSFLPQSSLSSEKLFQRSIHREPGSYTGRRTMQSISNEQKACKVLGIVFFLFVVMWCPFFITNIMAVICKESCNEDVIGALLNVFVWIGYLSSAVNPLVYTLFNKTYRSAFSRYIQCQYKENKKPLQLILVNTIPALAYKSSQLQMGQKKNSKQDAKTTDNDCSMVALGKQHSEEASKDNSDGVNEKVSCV

5-HT4 receptors, sequence (Q13639 whole entry): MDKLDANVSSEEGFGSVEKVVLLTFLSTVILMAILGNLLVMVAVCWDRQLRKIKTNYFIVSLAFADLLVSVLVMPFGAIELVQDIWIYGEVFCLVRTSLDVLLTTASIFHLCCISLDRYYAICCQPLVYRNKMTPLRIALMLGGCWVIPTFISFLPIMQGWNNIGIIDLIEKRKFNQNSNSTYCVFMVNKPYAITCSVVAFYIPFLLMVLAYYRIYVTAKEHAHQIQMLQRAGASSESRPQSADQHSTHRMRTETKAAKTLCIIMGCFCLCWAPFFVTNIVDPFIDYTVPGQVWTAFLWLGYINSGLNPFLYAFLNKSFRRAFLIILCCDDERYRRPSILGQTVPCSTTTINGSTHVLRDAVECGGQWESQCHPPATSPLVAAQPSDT

agonism of 5-HT4 receptors (5-HT4 receptors): potent and selective agonist
affinity for 5-HT3 receptors (5-HT3 receptors): no affinity
affinity for 5-HT2A receptors (5-HT2A receptors): no affinity
SMILES: COCCCN1CCC(NC(=O)c2cc(Cl)c(N)c3c2OCC3)CC1 [Prucalopride, 4-amino-5-chloro-2,3-dihydro-N-[1-(3-methoxypropyl)-4-piperidinyl]-7-benzofuran-carboxamide]
colonic motility and defecation [1]: stimulates colonic motility and defecation
